ChEMBL document CHEMBL1133200, “Nonpeptide endothelin antagonists: from lower affinity pyrazol-5-ols to higher affinity pyrazole-5-carboxylic acids” (Bioorg Med Chem Lett, 2000)

Key:
[1] = biological target: T1, Endothelin receptor type B (Rattus norvegicus, UniProt P21451); test: In vitro inhibition of [125-I] labelled ET-1 endothelin binding to Endothelin B receptor in rat cerebellum; assay type: tissue-based
T1 sequence (P21451 whole entry): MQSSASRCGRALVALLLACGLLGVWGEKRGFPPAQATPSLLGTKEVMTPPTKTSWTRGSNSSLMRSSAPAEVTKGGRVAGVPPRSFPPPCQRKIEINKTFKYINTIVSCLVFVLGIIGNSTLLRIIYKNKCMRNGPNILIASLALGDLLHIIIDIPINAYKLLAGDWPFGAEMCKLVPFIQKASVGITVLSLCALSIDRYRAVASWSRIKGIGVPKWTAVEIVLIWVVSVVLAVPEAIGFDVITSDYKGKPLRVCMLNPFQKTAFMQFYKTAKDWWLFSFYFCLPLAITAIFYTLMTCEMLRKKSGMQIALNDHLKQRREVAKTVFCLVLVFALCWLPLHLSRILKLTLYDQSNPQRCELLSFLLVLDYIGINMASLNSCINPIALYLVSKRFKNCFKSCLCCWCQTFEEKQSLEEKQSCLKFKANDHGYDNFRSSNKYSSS

[2] = biological target: T2, Endothelin-1 receptor (Rattus norvegicus, UniProt P26684); test: In vitro inhibition of endothelin binding to endothelin A receptor in rat heart ventricles was measured using a 125-I labelled ET-1 competition assay
T2 sequence (P26684 whole entry): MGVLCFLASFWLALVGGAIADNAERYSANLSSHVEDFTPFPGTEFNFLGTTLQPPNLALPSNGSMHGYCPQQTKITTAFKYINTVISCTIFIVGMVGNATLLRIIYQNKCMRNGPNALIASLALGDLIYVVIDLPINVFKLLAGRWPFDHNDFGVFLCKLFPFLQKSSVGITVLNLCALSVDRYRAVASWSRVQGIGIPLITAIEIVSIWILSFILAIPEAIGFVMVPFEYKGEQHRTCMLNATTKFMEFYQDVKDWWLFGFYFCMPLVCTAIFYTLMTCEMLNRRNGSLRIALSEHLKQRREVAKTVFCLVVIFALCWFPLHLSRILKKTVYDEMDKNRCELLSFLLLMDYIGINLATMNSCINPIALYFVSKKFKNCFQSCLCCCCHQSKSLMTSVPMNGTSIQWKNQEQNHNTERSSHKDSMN

[3] = biological target: T2, Endothelin-1 receptor; test: In vitro inhibition of endothelin binding to Endothelin A receptor in rat heart ventricles was measured using 125-I labelled ET-1 competition assay; No measurable affinity
[4] = biological target: T1, Endothelin receptor type B; test: In vitro inhibition of endothelin binding to Endothelin B receptor in rat cerebellum was measured using 125-I labelled ET-1 competition assay; No measurable affinity; assay type: tissue-based
[5] = pKa was determined in ethanol:water (1:1) system; assay type: physicochemical

| SMILES | IC50 [1] [µM] | IC50 [2] [µM] | IC50 [3] | IC50 [4] | pKa [5] |
| --- | --- | --- | --- | --- | --- |
| COc1cccc(Cn2nc(-c3ccccc3)c(Cc3cc4c(cc3Cl)OCO4)c2C(=O)O)c1 | 0.034 | 0.018 | – | – | – |
| COc1cccc(Cn2nc(C(F)(F)F)c(Cc3ccc4c(c3)OCO4)c2OCC(=O)O)c1 | 2.2 | 0.45 | – | – | – |
| COc1cccc(Cn2nc(-c3ccccc3)c(Cc3ccc4c(c3)OCO4)c2C(=O)O)c1 | 0.04 | 0.028 | – | – | – |
| COc1cccc(Cn2nc(C(F)(F)F)c(Cc3ccc4c(c3)OCO4)c2OCCO)c1 | > 25 | 40 | – | – | – |
| CCOC(=O)COc1c(Cc2ccc3c(c2)OCO3)c(C(F)(F)F)nn1Cc1cccc(OC)c1 | – | – | Not Active | Not Active | – |
| COc1cccc(Cn2nc(C(F)(F)F)c(Cc3ccc4c(c3)OCO4)c2OC)c1 | – | – | Not Active | Not Active | 6 |
| COc1cccc(Cn2[nH]c(C(F)(F)F)c(Cc3ccc4c(c3)OCO4)c2=O)c1 | 11 | – | – | – | – |
| O=c1c(Cc2ccc3c(c2)OCO3)c(C(F)(F)F)[nH]n1Cc1ccccc1Cl | 25 | 3.8 | – | – | – |
| COc1cccc(Cn2[nH]c(C(F)(F)F)c(Cc3cc(OC)c(OC)c(OC)c3)c2=O)c1 | – | – | Not Active | Not Active | – |
| O=c1c(Cc2ccc3c(c2)OCO3)c(C(F)(F)F)[nH]n1Cc1ccc2c(c1)OCO2 | 17 | 5.6 | – | – | – |
| COc1cccc(Cn2[nH]c(C(F)(F)F)c(Cc3ccc(F)cc3)c2=O)c1 | – | 40 | – | Not Active | – |
| COc1cccc(Cn2[nH]c(C(F)(F)F)c(Cc3ccc(Cl)cc3)c2=O)c1 | 22 | 4.3 | – | – | – |
| COc1cccc(Cn2[nH]c(C(F)(F)F)c(Cc3cc4c(cc3Cl)OCO4)c2=O)c1 | 2.4 | 0.6 | – | – | – |
| O=c1c(Cc2ccc3c(c2)OCO3)c(C(F)(F)F)[nH]n1Cc1cccc(O)c1 | 36 | 1.7 | – | – | – |
| COc1cccc(Cn2[nH]c(C(F)(F)C(F)(F)C(F)(F)F)c(Cc3ccc4c(c3)OCO4)c2=O)c1 | 1 | 0.14 | – | – | – |
| COc1ccc(Cc2[nH]n(Cc3cccc(OC)c3)c(=O)c2Cc2ccc3c(c2)OCO3)cc1 | 24 | 7.5 | – | – | – |

| SMILES | IC50 [1] [µM] | IC50 [2] [µM] | IC50 [3] | IC50 [4] | pKa [5] |
| --- | --- | --- | --- | --- | --- |
| COc1ccccc1Cn1[nH]c(C(F)(F)F)c(Cc2ccc3c(c2)OCO3)c1=O | 33 | 1.8 | – | – | – |
| COc1cccc(Cn2[nH]c(C(F)(F)F)c(Cc3ccc(OC)c(OC)c3)c2=O)c1 | – | – | Not Active | Not Active | – |
| COc1cccc(Cn2[nH]c(-c3ccccc3)c(Cc3ccc4c(c3)OCO4)c2=O)c1 | 3.2 | 0.42 | – | – | – |
| COc1ccc(Cn2[nH]c(C(F)(F)F)c(Cc3ccc4c(c3)OCO4)c2=O)c(OCC(=O)O)c1 | 12 | 3.8 | – | – | – |
| COc1cccc(Cn2[nH]c(C(F)(F)F)c(Cc3cc(Cl)c4c(c3)OCO4)c2=O)c1 | 5.4 | 1.3 | – | – | – |
| COc1ccc(Cc2c(C(F)(F)F)[nH]n(Cc3cccc(OC)c3)c2=O)cc1 | 39 | 48 | – | – | – |
| COc1cccc(Cn2[nH]c(C(F)(F)C(F)(F)F)c(Cc3ccc4c(c3)OCO4)c2=O)c1 | 3.3 | 0.11 | – | – | – |
| COc1ccc(Cn2[nH]c(C(F)(F)F)c(Cc3ccc4c(c3)OCO4)c2=O)cc1 | 9.2 | 2.1 | – | – | – |
| O=C(O)COc1cccc(Cn2[nH]c(C(F)(F)F)c(Cc3ccc4c(c3)OCO4)c2=O)c1 | 29 | 3.5 | – | – | – |
| COc1cccc(Cn2[nH]c(C(F)(F)F)c(Cc3ccc(Cl)c(Cl)c3)c2=O)c1 | 8.4 | 10 | – | – | – |
| O=c1c(Cc2ccc3c(c2)OCO3)c(C(F)(F)F)[nH]n1Cc1cccc(Cl)c1 | 14 | 1.9 | – | – | – |
| COc1cccc(Cn2[nH]c(C(F)(F)F)c(Cc3ccccc3)c2=O)c1 | – | 98 | – | Not Active | – |
| O=c1c(Cc2ccc3c(c2)OCO3)c(C(F)(F)F)[nH]n1Cc1ccccc1 | 24 | 10 | – | – | – |
| COc1cccc(Cn2[nH]c(C)c(Cc3ccc4c(c3)OCO4)c2=O)c1 | – | 20 | – | Not Active | – |
| COc1cccc(Cn2[nH]c(-c3ccc([N+](=O)[O-])cc3)c(Cc3ccc4c(c3)OCO4)c2=O)c1 | 15 | 3.1 | – | – | – |
| COc1cccc(Cn2nc(C(F)(F)F)c(Cc3ccc4c(c3)OCO4)c2OCCCC(=O)O)c1 | – | 64 | – | Not Active | – |
